Read-outs that look alike come from different tables or passages of the source.
System: ZIKV
Test: ZIKV reporter virus-based antiviral screening on Huh7 cells
Format: cell-based, Zika virus
Conditions: Huh7 cells infected with recombinant luciferase reporter ZIKV (MOI about 0.1), luciferase signal
Summary of the method: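 Huh7 cells in 2% FBS assay medium infected at MOI about 0.1 with Renilla or Nano luciferase ZIKV premixed with nine-point compound dilutions, 48 hrs at 37° C. Luciferase signal normalized to DMSO controls as 100%; viability optionally by CellTiter-Glo with Rlu virus.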

Compound	EC50 (Zika virus, Huh-7, 48 h)	EC50 (48 hrs, read-out: EC50)
CC[C@@H](C)[C@H](NC(=O)OC)C(=O)N1CC2(CC2)C[C@H]1c1nc(Cl)c(-c2cc3c4c(c2)OCc2cc(-c5[nH]c([C@@H]6CC7(CC7)CN6C(=O)[C@@H](NC(=O)OC)[C@H](C)CC)nc5C(C)C)cc(c2-4)OC3)[nH]1 [Compound 83, methyl ((2S,3R)-1-((S)-6-(5-(7-(4-chloro-2-((S)-5-((methoxycarbonyl)-L-alloisoleucyl)-5-azaspiro[2.4]heptan-6-yl)-1H-imidazol-5-yl)-5,10-dihydrochromeno[5,4,3-cde]chromen-2-yl)-4-isopropyl-1H-imidazol-2-yl)-5-azaspiro[2.4]heptan-5-yl)-3-methyl-1-oxopentan-2-yl)carbamate]	2.4 nM	–
COC(=O)N[C@H](C(=O)N1C[C@H](C)C[C@H]1c1nc(Cl)c(-c2cc3c4c(c2)OCc2cc(-c5[nH]c([C@@H]6C[C@@H](C)CN6C(=O)[C@@H](NC(=O)OC)C(C)C)nc5C(C)C)cc(c2-4)OC3)[nH]1)C(C)C [Compound 84, methyl ((S)-1-((2S,4R)-2-(5-(7-(4-chloro-2-((2S,4R)-1-((methoxycarbonyl)-L-valyl)-4-methylpyrrolidin-2-yl)-1H-imidazol-5-yl)-5,10-dihydrochromeno[5,4,3-cde]chromen-2-yl)-4-isopropyl-1H-imidazol-2-yl)-4-methylpyrrolidin-1-yl)-3-methyl-1-oxobutan-2-yl)carbamate]	3.3 nM	–
COC(=O)N[C@H](C(=O)N1CC2(CC2)C[C@H]1c1nc(Cl)c(-c2cc3c4c(c2)OCc2cc(-c5[nH]c([C@@H]6CC7(CC7)CN6C(=O)[C@@H](NC(=O)OC)C(C)(C)C(F)(F)F)nc5C(C)C)cc(c2-4)OC3)[nH]1)C(C)(C)C(F)(F)F [Compound 85, methyl ((S)-1-((S)-6-(5-(7-(4-chloro-2-((S)-5-((S)-4,4,4-trifluoro-2-((methoxycarbonyl)amino)-3,3-dimethylbutanoyl)-5-azaspiro[2.4]heptan-6-yl)-1H-imidazol-5-yl)-5,10-dihydrochromeno[5,4,3-cde]chromen-2-yl)-4-isopropyl-1H-imidazol-2-yl)-5-azaspiro[2.4]heptan-5-yl)-4,4,4-trifluoro-3,3-dimethyl-1-oxobutan-2-yl)carbamate]	1.4 nM	–
methyl ((S)-1-((S)-2-(5-(7-(4-chloro-2-((S)-1-((methoxycarbonyl)-L-valyl)pyrrolidin-2-yl)-1H-imidazol-5-yl)-5,10-dihydrochromeno[5,4,3-cde]chromen-2-yl)-4-isopropyl-1H-imidazol-2-yl)pyrrolidin-1-yl)-3-methyl-1-oxobutan-2-yl)carbamate [Compound 77]	–	13.6 nM

Source: patent publication US12497408B2, “Tetracyclic compounds and methods for the treatment of Zika virus infection” (priority 2021, dated 2025)
